Reference: article PMC10364322, “Evaluation of chronic drug-induced electrophysiological and cytotoxic effects using human-induced pluripotent stem cell-derived cardiomyocytes (hiPSC-CMs)” (Frontiers in Pharmacology, 2023)
Where two headings read alike, the source gives them in different places.

Assays:
[1] = tested on: hiPSC-CMs (iCell-Cardiomyocytes^2); assay: MEA impedance (cytotoxicity readout) in hiPSC-CMs
Method: (§1) Cells were seeded according to the instructions of the cell provider, in fibronectin-coated 48-well MEA plates (Axion Cytoview Plates, M768-tMEA-48B) at a density suited to form a monolayer (i.e., 50 K/well) and maintained in culture in a stage incubator (37°C, 5% CO2).
(§2) At least 4 h before the beginning of the baseline measurements, a full medium exchange was performed (to a final volume of 400 µL per well). Neat compounds were dissolved in 100% DMSO at a stock concentration 1000-fold the highest target concentration. […] Afterwards, these stock solutions were diluted with Maintenance medium (CDi), to 10-fold the intended concentration. The final DMSO concentration in test solutions and vehicle control was 0.1%.
(§3) Spontaneous electrical activity was recorded in hiPSC-CMs monolayers as field potentials using the Maestro Pro MEA instrument (Axion Biosystems, Atlanta, GA, United States), which allows the maintenance of accurate temperature and CO2 levels (37°C, 5% CO2). After the plate was placed in the Maestro Pro and allowed to equilibrate for about 10 min, baseline acquisition of field potential and impedance signals was initiated and lasted for 5 min each. […] As impedance measures resistance of an applied alternating current through the hiPSC-CMs monolayer, a reduction in the attachment of hiPSC-CMs to the bottom of the well due to cell death or changes in the monolayer morphology, causes a drop in the impedance signal.
(§4) After the acquisition of all timepoint measurements, raw data were loaded into the data analysis software Axion Cardiac Analysis Tool (V.3.2.3). […] A.csv file containing information on the FP parameters per well, per time point, was then generated and used as input to the in-house data management system (SPEcII v.3.4, Unlimit-IT, Geel, Belgium), where descriptive statistics were calculated. Summary values at different time points after compound addition are expressed as percent change from baseline and shown as mean ± standard deviation (SD).
(§5) The nonparametric Wilcoxon-Mann Whitney Test was used to compare the percent change from the baseline (Δ%) value between the group treated with the compound at a given concentration and the group treated with the DMSO at each matching time points. A two-sided test at 5% significance level was considered. […] To assess the physiological relevance of changes, a tolerance interval of DMSO experiments was calculated at each time point, for each parameter. […] TIs indicate an interval where, with a certain confidence level (1- α = 0.95), a specified proportion (p = 0.80) of percent change for DMSO data falls. The lower and upper limits based on the TI values were used as cut-offs for the interpretation of the changes. For the cytotoxicity assays, measurements of fluorescence (after background fluorescence subtraction) from wells treated with the compounds were normalized by the average value of vehicle experiments (DMSO 0.1%) to obtain a DMSO-corrected, delta/delta percent change. Experiments from each condition, as delta/delta percent, were averaged and expressed as mean ± SD. Statistical analysis was performed using a non-parametric test (Kruskal-Wallis) and each treatment condition was compared to the relative DMSO 0.1%. Differences were considered statistically significant when the p-value was smaller than 0.05.

[2] = tested on: hiPSC-CMs (iCell-Cardiomyocytes^2)
Method: as §1, §2, §3
The potential presence of various arrhythmic events was evaluated and noted during the data analysis.
as §4, §5

[3] = free therapeutic Cmax in humans; ref FDA-approved drug packages, PharmaPendium; cited from earlier work

## CC1(C)S[C@@H]2[C@H](NC(=O)[C@H](N)c3ccc(O)cc3)C(=O)N2[C@H]1C(=O)O [Amoxicillin]
[1]; 1 µM, 2h
  Imp (impedance), % change from baseline: 2±4%
[1]; 1 µM, 24h
  Imp (impedance), % change from baseline: 9±7%
[1]; 1 µM, 48h
  Imp (impedance), % change from baseline: -2±4%
[1]; 1 µM, 72h
  Imp (impedance), % change from baseline: 4±3 %
[1]; 1 µM, 96h
  Imp (impedance), % change from baseline: 0±8%
[1]; 3 µM, 72h
  Imp (impedance), % change from baseline: 1±4%
[1]; 3 µM, 96h
  Imp (impedance), % change from baseline: -2±6%
[1]; 3 µM, 2h
  Imp (impedance), % change from baseline: 2±3%
[1]; 3 µM, 24h
  Imp (impedance), % change from baseline: 7±6%
[1]; 3 µM, 48h
  Imp (impedance), % change from baseline: -3±6%
[1]; 10 µM, 2h
  Imp (impedance), % change from baseline: 2±3%
[1]; 10 µM, 24h
  Imp (impedance), % change from baseline: 7±6%
[1]; 10 µM, 48h
  Imp (impedance), % change from baseline: -2±3%
[1]; 10 µM, 72h
  Imp (impedance), % change from baseline: 1±4%
[1]; 10 µM, 96h
  Imp (impedance), % change from baseline: -1±6%
[1]; 30 µM, 2h
  Imp (impedance), % change from baseline: 2±3%
[1]; 30 µM, 24h
  Imp (impedance), % change from baseline: 2±4%
[1]; 30 µM, 48h
  Imp (impedance), % change from baseline: -1±3%
[1]; 30 µM, 72h
  Imp (impedance), % change from baseline: -6±4%
[1]; 30 µM, 96h
  Imp (impedance), % change from baseline: -4±5%
[2]; 1 µM, 2h
  BR (beating rate), % change from baseline: 8±1%
  FPD (field-potential duration), % change from baseline: -1±2.2%
  FPDc (field-potential duration corrected by beat-rate), % change from baseline: 1.6±2.2%
[2]; 1 µM, 24h
  BR (beating rate), % change from baseline: 16±2%
  FPD (field-potential duration), % change from baseline: -2.8±1.5%
  FPDc (field-potential duration corrected by beat-rate), % change from baseline: 2.1±1.1%
[2]; 1 µM, 48h
  BR (beating rate), % change from baseline: 3±2%
  FPD (field-potential duration), % change from baseline: 4.3±3%
  FPDc (field-potential duration corrected by beat-rate), % change from baseline: 5.3±2.8%
[2]; 1 µM, 72h
  BR (beating rate), % change from baseline: -2±3%
  FPD (field-potential duration), % change from baseline: 8.1±4.8%
  FPDc (field-potential duration corrected by beat-rate), % change from baseline: 7±3.6%
[2]; 1 µM, 96h
  BR (beating rate), % change from baseline: -21±2 %
  FPD (field-potential duration), % change from baseline: 16.9±3%
  FPDc (field-potential duration corrected by beat-rate), % change from baseline: 8.1±2%
[2]; 3 µM, 72h
  BR (beating rate), % change from baseline: -4±3%
  FPD (field-potential duration), % change from baseline: 9.6±3.7%
  FPDc (field-potential duration corrected by beat-rate), % change from baseline: 8.4±2.9%
[2]; 3 µM, 96h
  BR (beating rate), % change from baseline: -20±4 %
  FPD (field-potential duration), % change from baseline: 18.2±7.7%
  FPDc (field-potential duration corrected by beat-rate), % change from baseline: 9.6±6.7%
[2]; 3 µM, 2h
  BR (beating rate), % change from baseline: 8±1%
  FPD (field-potential duration), % change from baseline: 0.7±2.8%
  FPDc (field-potential duration corrected by beat-rate), % change from baseline: 3.1±2.9%
[2]; 3 µM, 24h
  BR (beating rate), % change from baseline: 16±3%
  FPD (field-potential duration), % change from baseline: -2.7±2.9%
  FPDc (field-potential duration corrected by beat-rate), % change from baseline: 2.3±2.9%
[2]; 3 µM, 48h
  BR (beating rate), % change from baseline: 2±2%
  FPD (field-potential duration), % change from baseline: 5.1±3.9%
  FPDc (field-potential duration corrected by beat-rate), % change from baseline: 5.7±3.9%
[2]; 10 µM, 2h
  BR (beating rate), % change from baseline: 8±3%
  FPD (field-potential duration), % change from baseline: 0.5±3.7%
  FPDc (field-potential duration corrected by beat-rate), % change from baseline: 3±3.1%
[2]; 10 µM, 24h
  BR (beating rate), % change from baseline: 18±6 %
  FPD (field-potential duration), % change from baseline: -3.1±4.9%
  FPDc (field-potential duration corrected by beat-rate), % change from baseline: 2.2±3.9%
[2]; 10 µM, 48h
  BR (beating rate), % change from baseline: 3±4%
  FPD (field-potential duration), % change from baseline: 6.6±2.8%
  FPDc (field-potential duration corrected by beat-rate), % change from baseline: 7.4±2.1%
[2]; 10 µM, 72h
  BR (beating rate), % change from baseline: -1±8%
  FPD (field-potential duration), % change from baseline: 9.6±7.3%
  FPDc (field-potential duration corrected by beat-rate), % change from baseline: 8.9±4.3%
[2]; 10 µM, 96h
  BR (beating rate), % change from baseline: -19±5 %
  FPD (field-potential duration), % change from baseline: 18.3±5.7%
  FPDc (field-potential duration corrected by beat-rate), % change from baseline: 10.4±4.4%
[2]; 30 µM, 2h
  BR (beating rate), % change from baseline: 5±4%
  FPD (field-potential duration), % change from baseline: -0.1±3.5%
  FPDc (field-potential duration corrected by beat-rate), % change from baseline: 1.6±2.8%
[2]; 30 µM, 24h
  BR (beating rate), % change from baseline: 15±6%
  FPD (field-potential duration), % change from baseline: -4.2±3.4%
  FPDc (field-potential duration corrected by beat-rate), % change from baseline: 0.5±2.7%
[2]; 30 µM, 48h
  BR (beating rate), % change from baseline: 1±5%
  FPD (field-potential duration), % change from baseline: 5.6±1.7%
  FPDc (field-potential duration corrected by beat-rate), % change from baseline: 6±2.2%
[2]; 30 µM, 72h
  BR (beating rate), % change from baseline: -3±8%
  FPD (field-potential duration), % change from baseline: 8.8±5.4%
  FPDc (field-potential duration corrected by beat-rate), % change from baseline: 7.7±3.8%
[2]; 30 µM, 96h
  BR (beating rate), % change from baseline: -20±4 %
  FPD (field-potential duration), % change from baseline: 16.4±1.3%
  FPDc (field-potential duration corrected by beat-rate), % change from baseline: 7.9±2.1%
[3]
  Free Cmax: 16.1 µM
